One experiment concerns the target Mcl-1 protein (UniProtKB primary accession number: Q07820) (Homo sapiens, UniProt Q07820). The experiment can be described thus: Inhibition of Mcl-1 by fluorescence polarisation, Method 1. The conditions noted are these: fluorescence polarisation test; Method 1, or Method 2 where the value is underlined (underlining not visible); read-out: IC50 (M) Mcl-1 FP. Format: binding. The method, boiled down: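 Buffer of 10 mM HEPES pH 7.4 with 150 mM NaCl and 0.05% Tween 20 held 5 nM Mcl-1 and 1 nM fluorescein-tagged ligand (final). Compounds were tested as 11-point serial dilutions at 5% final DMSO, and binding was read by FP.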
On the technique in general: In fluorescence polarisation assays a small probe gives low polarisation when free and higher when bound to something large.
Sequence of Mcl-1 protein (Q07820 whole entry): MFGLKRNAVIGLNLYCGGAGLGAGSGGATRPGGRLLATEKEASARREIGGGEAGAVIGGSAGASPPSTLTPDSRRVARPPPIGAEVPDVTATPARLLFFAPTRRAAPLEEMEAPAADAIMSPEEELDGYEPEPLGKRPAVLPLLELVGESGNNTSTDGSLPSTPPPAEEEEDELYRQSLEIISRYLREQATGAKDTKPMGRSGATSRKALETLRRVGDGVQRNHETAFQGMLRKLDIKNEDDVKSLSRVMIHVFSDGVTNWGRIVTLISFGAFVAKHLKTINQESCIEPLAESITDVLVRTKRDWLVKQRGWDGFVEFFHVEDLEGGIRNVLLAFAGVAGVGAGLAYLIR
`CCOC(=O)C(Cc1ccccc1OCc1ccnc(-c2ccccc2OCCOC)n1)Oc1ncnc2sc(-c3ccc(F)cc3)c(-c3ccc(OCCN4CCN(C)CC4)c(Cl)c3C)c12` [Example 796, ethyl (2R)-2-{[(5Sa)-5-{3-chloro-2-methyl-4-[2-(4-methylpiperazin-1-yl)ethoxy]phenyl}-6-(4-fluorophenyl)thieno[2,3-d]pyrimidin-4-yl]oxy}-3-[2-({2-[2-(2-methoxyethoxy)phenyl]pyrimidin-4-yl}methoxy)phenyl]propanoate]: the IC50 (usually the concentration that gives 50% inhibition) was 5.16e-07 M.

The same experiment, now with this note: fluorescence polarisation test; Method 2 values are underlined in the patent (underlining not visible here); read-out: IC50 (M) Mcl-1 FP.
Consider `COc1ccccc1CC(Oc1ncnc2sc(-c3ccco3)c(-c3ccc(OC(=O)CN4CCN(C)CC4)c(Cl)c3C)c12)C(=O)O` [Example 332, (2R)-2-{[(5Sa)-5-(3-chloro-2-methyl-4-{[(4-methylpiperazin-1-yl)acetyl]oxy}phenyl)-6-(furan-2-yl)thieno[2,3-d]pyrimidin-4-yl]oxy}-3-(2-methoxyphenyl)propanoic acid], for which the IC50 was determined as 1.3e-08 M.

On to `Cc1c(-c2c(-c3ccco3)sc3ncnc(OC(Cc4ccccc4OC4CCCc5cccnc54)C(=O)O)c23)ccc(OCCN2CCN(C)CC2)c1Cl` [Example 213, (2R)-2-{[(5Sa)-5-{3-chloro-2-methyl-4-[2-(4-methylpiperazin-1-yl)ethoxy]phenyl}-6-(furan-2-yl)thieno[2,3-d]pyrimidin-4-yl]oxy}-3-[2-(5,6,7,8-tetrahydroquinolin-8-yloxy)phenyl]propanoic acid], for which the IC50 was 1.8e-08 M.

Regarding `Cc1c(-c2c(-c3ccc(F)o3)sc3ncnc(OC(Cc4ccccc4OCc4ccnn4C(C)(C)C)C(=O)O)c23)ccc(OCCN2CCN(C)CC2)c1Cl` [Example 181, (2R)-3-{2-[(1-tert-butyl-1H-pyrazol-5-yl)methoxy]phenyl}-2-{[(5Sa)-5-{3-chloro-2-methyl-4-[2-(4-methylpiperazin-1-yl)ethoxy]phenyl}-6-(5-fluorofuran-2-yl)thieno[2,3-d]pyrimidin-4-yl]oxy}propanoic acid], the IC50 was 4.8e-09 M.

For `Cc1c(-c2c(-c3ccc(F)cc3)sc3ncnc(OC(Cc4ccccc4OCC4CCCO4)C(=O)O)c23)ccc(OCCN2CCN(C)CC2)c1Cl` [Example 2, (2R)-2-{[(5Sa)-5-{3-chloro-2-methyl-4-[2-(4-methylpiperazin-1-yl)ethoxy]phenyl}-6-(4-fluorophenyl)thieno[2,3-d]pyrimidin-4-yl]oxy}-3-{2-[(2R)-tetrahydrofuran-2-ylmethoxy]phenyl}propanoic acid], the IC50 turned out to be 1.2e-08 M.

Consider `Cc1c(-c2c(-c3ccc(F)cc3)sc3ncnc(OC(Cc4ccccc4OCc4nncn4C)C(=O)O)c23)ccc(OCCN2CCN(C)CC2)c1Cl` [Example 102, (2R)-2-{[(5Sa)-5-{3-chloro-2-methyl-4-[2-(4-methylpiperazin-1-yl)ethoxy]phenyl}-6-(4-fluorophenyl)thieno[2,3-d]pyrimidin-4-yl]oxy}-3-{2-[(4-methyl-4H-1,2,4-triazol-3-yl)methoxy]phenyl}propanoic acid], for which the IC50 worked out at 9.5e-09 M.

Staying with this experiment, now noted: fluorescence polarisation; Method 1, or Method 2; read-out: IC50 (M) Mcl-1 FP.
As to `CCc1sc2ncnc(OC(Cc3ccccc3)C(=O)O)c2c1-c1cc(OCCN2CCN(C)CC2)ccc1C` [Example 440, (2R)-2-[(6-ethyl-(5Sa)-5-{2-methyl-5-[2-(4-methylpiperazin-1-yl)ethoxy]phenyl}thieno[2,3-d]pyrimidin-4-yl)oxy]-3-phenylpropanoic acid and (2S)-2-[(6-ethyl-(5Ra)-5-{2-methyl-5-[2-(4-methylpiperazin-1-yl)ethoxy]phenyl}thieno[2,3-d]pyrimidin-4-yl)oxy]-3-phenylpropanoic acid], the IC50 came to 3e-07 M.

Turning to `CC#Cc1sc2ncnc(O[C@H](Cc3ccccc3OC)C(=O)O)c2c1-c1ccc(CCCN(C)C)c(Cl)c1C` (single isomer, unassigned) [Example 479], the half-inhibitory concentration (IC50) was 1.1e-08 M.

Turning to `CCOC(=O)C(Cc1ccccc1OC)Oc1ncnc2sc(-c3ccco3)c(-c3ccc(OCCN4CCN(C)CC4)c(Cl)c3C)c12` [Example 627, ethyl (2R)-2-{[(5Sa)-5-{3-chloro-2-methyl-4-[2-(4-methylpiperazin-1-yl)ethoxy]phenyl}-6-(furan-2-yl)thieno[2,3-d]pyrimidin-4-yl]oxy}-3-(2-methoxyphenyl)propanoate], the half-inhibitory concentration (IC50) stood at 4.9e-07 M.

For `CCc1sc2ncnc(OC(Cc3ccccc3OC)C(=O)O)c2c1-c1ccc(O)c(Cl)c1C` (single isomer, unassigned) [Example 681], the IC50 amounted to 6.7e-09 M.

For `Cc1c(-c2c(C#CC3CC3)sc3ncnc(OC(Cc4ccccc4)C(=O)O)c23)ccc(OCCN2CCN(C)CC2)c1Cl` [Example 520, (2R)-2-{[(5Sa)-5-{3-chloro-2-methyl-4-[2-(4-methylpiperazin-1-yl)ethoxy]phenyl}-6-(cyclopropylethynyl)thieno[2,3-d]pyrimidin-4-yl]oxy}-3-phenylpropanoic acid], the IC50 came to 4.1e-08 M.

With `Cc1c(-c2c(-c3ccc(F)cc3)sc3ncnc(OC(Cc4ccccc4OCC(F)(F)F)C(=O)O)c23)ccc(OCC2CCCN2C)c1Cl` (single isomer, unassigned) [Example 659, (2R)-2-{[(5Sa)-5-{3-chloro-2-methyl-4-[((2R or S)-1-methylpyrrolidin-2-yl)methoxy]phenyl}-6-(4-fluorophenyl)thieno[2,3-d]pyrimidin-4-yl]oxy}-3-[2-(2,2,2-trifluoroethoxy)phenyl]propanoic acid], the IC50 was 2.2e-08 M.

In the case of `C=C(C)c1sc2ncnc(O[C@H](Cc3ccccc3)C(=O)O)c2c1-c1cccc(Cl)c1C` (single isomer, unassigned) [Example 720], the 50% inhibitory concentration (IC50) was found to be 4.4e-08 M.

In the case of `COc1ccc(-c2c(-c3ccc(F)cc3)sc3ncnc(OC(Cc4ccccc4OCCN4CCN(C)CC4)C(=O)O)c23)c(C)c1Cl` [Example 661, (2R)-2-{[(5Sa)-5-(3-chloro-4-methoxy-2-methylphenyl)-6-(4-fluorophenyl)thieno[2,3-d]pyrimidin-4-yl]oxy}-3-{2-[2-(4-methylpiperazin-1-yl)ethoxy]phenyl}propanoic acid], the IC50 turned out to be 1e-07 M.

For the molecule `CCc1sc2ncnc(OC(Cc3ccccc3)C(=O)O)c2c1-c1cccc(Cl)c1C` [Example 451, (2R)-2-{[(5Ra)-5-(3-chloro-2-methylphenyl)-6-ethylthieno[2,3-d]pyrimidin-4-yl]oxy}-3-phenylpropanoic acid], the IC50 is 5.8e-07 M.

As to `COc1ccccc1Cn1ccc(COc2ccccc2CC(Oc2ncnc3sc(-c4ccc(F)cc4)c(-c4ccc(OCCN5CCN(C)CC5)c(Cl)c4C)c23)C(=O)O)n1` [Example 740, (2R)-2-{[(5Sa)-5-{3-chloro-2-methyl-4-[2-(4-methylpiperazin-1-yl)ethoxy]phenyl}-6-(4-fluorophenyl)thieno[2,3-d]pyrimidin-4-yl]oxy}-3-(2-{[1-(2-methoxybenzyl)-1H-pyrazol-3-yl]methoxy}phenyl)propanoic acid], the IC50 was found to be 5.04e-09 M.

As to `CCc1sc2ncnc(OC(Cc3ccccc3F)C(=O)O)c2c1-c1ccc(OCCN2CCN(C)CC2)c(Cl)c1C` [Example 464, (2S)-2-[((5Ra)-5-{3-chloro-2-methyl-4-[2-(4-methylpiperazin-1-yl)ethoxy]phenyl}-6-ethylthieno[2,3-d]pyrimidin-4-yl)oxy]-3-(2-fluorophenyl)propanoic acid], the IC50 is 3.9e-07 M.

As to `COc1ccccc1CC(Oc1ncnc2sc(-c3cccc(OCCN4CCN(C)CC4)c3)c(-c3ccc(OC)c(Cl)c3C)c12)C(=O)O` [Example 713, (2R)-2-{[(5Sa)-5-(3-chloro-4-methoxy-2-methylphenyl)-6-{3-[2-(4-methylpiperazin-1-yl)ethoxy]phenyl}thieno[2,3-d]pyrimidin-4-yl]oxy}-3-(2-methoxyphenyl)propanoic acid], the half-inhibitory concentration (IC50) was 1.6e-08 M.

The same experiment, now with this note: partial inhibitors; @ 10 uM test compound.
Turning to `CCOC(=O)[C@@H](Cc1ccccc1OCC(F)(F)F)Oc1ncnc2sc(-c3ccc(F)cc3)c(-c3ccc(OCCN4CCOCC4)c(Cl)c3C)c12` [Example 637, ethyl (2R)-2-{[(5Sa)-5-{3-chloro-2-methyl-4-[2-(morpholin-4-yl)ethoxy]phenyl}-6-(4-fluorophenyl)thieno[2,3-d]pyrimidin-4-yl]oxy}-3-[2-(2,2,2-trifluoroethoxy)phenyl]propanoate], the “percentage fluorescence polarisation inhibition, Mcl-1 FP” value amounted to 5.9% @ 10 uM.

`CCOC(=O)[C@@H](Cc1ccccc1OC)Oc1ncnc2sc(-c3ccc(F)cc3)c(-c3ccc(OCCN4CCN(C)CC4)c(Cl)c3C)c12` [Example 642, ethyl (2R)-2-{[(5Sa)-5-{3-chloro-2-methyl-4-[2-(4-methylpiperazin-1-yl)ethoxy]phenyl}-6-(4-fluorophenyl)thieno[2,3-d]pyrimidin-4-yl]oxy}-3-(2-methoxyphenyl)propanoate]: the “percentage fluorescence polarisation inhibition, Mcl-1 FP” value amounted to 11% @ 10 uM.

Staying with this experiment, now noted: test compound at 10 uM; Method 1, or Method 2 where the value is underlined (underlining not visible).
On to `CCCCCCCCOC(=O)[C@@H](Cc1ccccc1OC)Oc1ncnc2sc(-c3ccc(F)cc3)c(-c3ccc(OC)c(Cl)c3C)c12` [Example 851, octyl (2R)-2-{[(5Sa)-5-(3-chloro-4-methoxy-2-methylphenyl)-6-(4-fluorophenyl)thieno[2,3-d]pyrimidin-4-yl]oxy}-3-(2-methoxyphenyl)propanoate], for which the “percentage fluorescence polarisation inhibition (Mcl-1 FP), partial inhibitors” value came out at 7.85% @ 10 uM.

Take `COc1ccccc1C[C@@H](Oc1ncnc2sc(-c3ccc(F)cc3)c(-c3ccc(OC)c(Cl)c3C)c12)C(=O)OCC(=O)N(C)C` [Example 845, 2-(dimethylamino)-2-oxoethyl (2R)-2-{[(5Sa)-5-(3-chloro-4-methoxy-2-methylphenyl)-6-(4-fluorophenyl)thieno[2,3-d]pyrimidin-4-yl]oxy}-3-(2-methoxyphenyl)propanoate]: the “percentage fluorescence polarisation inhibition (Mcl-1 FP), partial inhibitors” value is 7.85% @ 10 uM.

These data come from patent publication US9670227B2, “Thienopyrimidine derivatives, a process for their preparation and pharmaceutical compositions containing them” (LES LABORATOIRES SERVIER, priority 2013, dated 2017).
